Publication PMC1950704 (Respiratory Research, 2007)
“Also recorded” adds a separate entry of the source. Read-outs that look alike come from different tables or passages of the source.

Key:
[1] = Control experiment for non-specific adsorption to glass incubation vials (buffer without tissue); assay type: physicochemical; conditions: 480 min at 37°C, Krebs-Ringer-HEPES buffer; for non-specific binding to glass incubation vials: no tissue
Experimental: Lung tissue was washed in Krebs-Ringer-HEPES buffer (pH 7.4) and sliced into pieces of 1 mm^3. For each binding experiment approximately 0.5 g of lung tissue was used. Adsorption of glucocorticoids (0.3 μg/mL) to human lung tissue was determined as described earlier. Briefly, lung tissue pieces were suspended under gentle shaking for 1 h at 37°C in 20 ml Krebs-Ringer-HEPES buffer containing 0.3 μg/ml of the glucocorticoid. 2.0 mL samples were taken and stored at -20°C until analysis. The volume withdrawn was replaced with fresh buffer of 37°C. Only glass lab ware was used for these experiments to avoid any non-specific binding effects of the highly lipophilic compounds to plastic material. […]
(§1) Samples of 1.0 mL (tissue desorption/stability) or 2.0 mL (tissue adsorption) were mixed with 0.1 mL internal standard solution and extracted twice with 3 mL diethylether for 30 min, using a roller mixer, followed by centrifugation (20°C) for 5 min. The organic phase was separated and evaporated to dryness under a gentle stream of nitrogen at 25°C. The resulting residue was reconstituted in 0.2 mL mobile phase. […] Linearity was given from 10–500 ng/mL glucocorticoid, coefficients of correlation of the calibration curves were at least 0.99.
(§2) The HPLC system was a Waters HPLC (Milford, MA) consisting of a 1525 binary pump, an 717plus autosampler and 2487 dual wavelength absorbance detector set at the detection wavelength of 254 nm. Data collection and integration were accomplished using Breeze™ software version 3.2. Analysis was performed on a Symmetry C18 column (150 × 4.6 mm I.D., 5 μm particle size, Waters, MA). Typically, 20 μL of sample were injected and separated at a flow rate of 1 mL/min. Gradient elution was performed using water (containing 0.2 % (v/v) acetic acid) and ACN, starting at 60:40 (v/v) water/ACN increasing linearly to 29:71 (v/v) water/ACN by 30 min. The assay was accurate and reproducible. The lower limit of quantitation was 10 ng/mL for all glucocorticoids except ciclesonide (20 ng/mL).

[2] = Desorption of glucocorticoids from human lung tissue into human plasma; assay type: in vitro ADME; conditions: for concentration remaining in human lung tissue after desorption: after 60 min equilibration with human plasma at 37°C; for retention / tissue binding in human lung tissue (in words): in vitro
Experimental: Desorption of glucocorticoids to human lung tissue was determined as described earlier. Briefly, lung tissue (1.0 g) was saturated with glucocorticoids for 1 h at 37°C by shaking in 40 mL Krebs-Ringer-HEPES buffer containing 0.3 μg/mL of the respective glucocorticoid. After incubation tissue was washed with 2 mL buffer and transferred into 10.0 mL human plasma (37°C). Again, only glass lab ware was used for these experiments to exclude any non-specific binding effects of the highly lipophilic compounds to plastic material. Samples of 1.0 mL were taken at defined time points. The volume was replaced with fresh plasma at 37°C. Samples were stored at -20°C until further analysis.
as §1, §2

[3] = Stability in fresh human lung tissue in vitro, with and without esterase inhibitor dichlorvos; assay type: in vitro ADME; conditions: 37°C
Experimental: Incubations were performed in the presence and absence of dichlorvos (1 mg/mL). Over 24 hours, samples of 1.0 mL tissue-free supernatant were taken and immediately stored at -20°C until analysis. The incubation medium was replenished by buffer which was pre-temperated to 37°C. In case of incubations with dichlorvos the medium used for replenishment contained the esterase inhibitor.
as §1
The HPLC system was a Waters HPLC (Milford, MA) consisting of a 1525 binary pump, an 717plus autosampler and 2487 dual wavelength absorbance detector set at the detection wavelength of 254 nm. Data collection and integration were accomplished using Breeze™ software version 3.2. Analysis was performed on a Symmetry C18 column (150 × 4.6 mm I.D., 5 μm particle size, Waters, MA). […] The lower limit of quantitation was 10 ng/mL for all glucocorticoids except ciclesonide (20 ng/mL).

[4] = Binding to human nasal tissue; assay type: in vitro ADME; conditions: single experiment, tissue pooled from 3 donors; data not shown
[5] = Adsorption of glucocorticoids to human lung tissue; assay type: in vitro ADME; conditions: 37°C; for tissue binding (concentration in human lung tissue) after adsorption: 60 min incubation, 0.3 μg/mL glucocorticoid in buffer, before incubation in plasma
Experimental: Lung tissue was washed in Krebs-Ringer-HEPES buffer (pH 7.4) and sliced into pieces of 1 mm^3. For each binding experiment approximately 0.5 g of lung tissue was used. Adsorption of glucocorticoids (0.3 μg/mL) to human lung tissue was determined as described earlier. Briefly, lung tissue pieces were suspended under gentle shaking for 1 h at 37°C in 20 ml Krebs-Ringer-HEPES buffer containing 0.3 μg/ml of the glucocorticoid. 2.0 mL samples were taken and stored at -20°C until analysis. The volume withdrawn was replaced with fresh buffer of 37°C. Only glass lab ware was used for these experiments to avoid any non-specific binding effects of the highly lipophilic compounds to plastic material. For control, blank samples with glucocorticoid-containing buffer, but no tissue, were incubated under the same experimental conditions (1 h at 37°C, in Krebs-Ringer-HEPES buffer) and analyzed for non-specific adsorption of the glucocorticoids to the glass tubes.
as §1, §2

[6] = biological target: T1, human lung glucocorticoid receptor (Homo sapiens, UniProt P04150); conditions: from previous experiments of the authors; ref [3]; cited from earlier work
T1 sequence (P04150 1-777): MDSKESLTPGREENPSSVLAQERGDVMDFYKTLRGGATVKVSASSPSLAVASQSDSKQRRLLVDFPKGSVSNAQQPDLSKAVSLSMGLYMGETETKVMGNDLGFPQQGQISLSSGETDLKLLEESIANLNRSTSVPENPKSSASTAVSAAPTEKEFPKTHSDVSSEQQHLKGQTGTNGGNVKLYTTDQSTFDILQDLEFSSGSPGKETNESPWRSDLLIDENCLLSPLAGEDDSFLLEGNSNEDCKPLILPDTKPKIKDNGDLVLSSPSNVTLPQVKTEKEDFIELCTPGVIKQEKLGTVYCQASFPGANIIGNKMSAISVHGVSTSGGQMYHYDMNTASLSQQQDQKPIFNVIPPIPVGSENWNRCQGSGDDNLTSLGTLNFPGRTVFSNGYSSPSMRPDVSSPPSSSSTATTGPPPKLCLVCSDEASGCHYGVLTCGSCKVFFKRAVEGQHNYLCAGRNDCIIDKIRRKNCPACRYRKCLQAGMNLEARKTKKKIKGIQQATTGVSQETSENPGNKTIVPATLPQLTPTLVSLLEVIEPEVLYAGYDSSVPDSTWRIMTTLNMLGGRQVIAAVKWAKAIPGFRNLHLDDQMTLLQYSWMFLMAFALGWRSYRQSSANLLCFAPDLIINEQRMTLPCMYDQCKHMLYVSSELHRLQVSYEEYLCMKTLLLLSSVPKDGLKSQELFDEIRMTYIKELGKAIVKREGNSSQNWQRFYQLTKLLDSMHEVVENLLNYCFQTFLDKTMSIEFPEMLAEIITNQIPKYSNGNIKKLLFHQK

[7] = biological target: T1, human lung glucocorticoid receptor; assay: Kinetic receptor binding experiments (association and dissociation kinetics) in human lung cytosol; set-up: we isolated human lung glucocorticoid receptors from human lung tissue; from tissue; host or cells: human lung tissue cytosol (105,000 x g supernatant); conditions: 20°C, mean and mean deviation of the mean, 3-7 experiments
Experimental: Human lung tissue was deep frozen immediately after resection and stored in liquid nitrogen. Frozen tissue was pulverized and homogenized in three aliquots buffer solution A with an Ultra Turrax mixer (Janke and Kunkel, Staufen, Germany) in an ice bath. […] The cytosol was stored in aliquots at -70°C.
The receptor binding experiments were performed according to the procedure described earlier [1] based on [7-9].
The assay for total binding (Bt in [mol/L]) was carried out accordingly, but the unlabelled glucocorticoid was replaced by buffer solution G. To determine the total [^3H]-glucocorticoid concentration (T), 20 μL of the mixture were used for scintillation counting. […]
The Zt-values were plotted against time t and a linear regression was performed. The slope of the straight line (kAss = k1) and the coefficient of correlation r were calculated based on a minimum of four data points. […]
The Bs,t-values were plotted semi-logarithmical against time t and a linear regression was performed. The slope of the straight line (kDiss = k-1) and the coefficient of correlation r were calculated based on a minimum of six data points.
Equilibrium dissociation constant (KD) was calculated for each glucocorticoid based on association and dissociation rate constants:

[8] = system: glucocorticoid receptor (rat receptor data); set-up: method as in PMID 14718604; conditions: reference dexamethasone = 100, ref [16]; cited from earlier work

| SMILES | concentration remaining in human lung tissue after desorption [2] [ng/mg] | retention / tissue binding in human lung tissue (in words) [2] | tissue binding (concentration in human lung tissue) after adsorption [5] [ng/mg] | non-specific binding to glass incubation vials [1] | also measured |
| --- | --- | --- | --- | --- | --- |
| C[C@@H]1C[C@H]2[C@@H]3CCC4=CC(=O)C=C[C@]4(C)[C@@]3(F)[C@@H](O)C[C@]2(C)[C@@]1(O)C(=O)CO [Dexa, dexamethasone] | – | – | – | – | association rate constant k1 ([7]; [3H]-glucocorticoid): 10.53 ± 0.35 × 10^5 (L/[mol/min]); dissociation rate constant k-1 [7]: 94.67 ± 5.43 × 10^-4 [1/min] |
| CCC(=O)OCC(=O)[C@@]1(OC(=O)CC)[C@@H](C)C[C@H]2[C@@H]3CCC4=CC(=O)C=C[C@]4(C)[C@@]3(Cl)[C@@H](O)C[C@@]21C [BDP, beclomethasone-17, 21-dipropionate] | – | – | – | – | concentration in the supernatant in the absence of dichlorvos (control of enzymatic integrity) ([3]; human lung tissue, absence of dichlorvos, data not shown): rapidly decreased |
| C[C@]12C=CC(=O)C=C1CC[C@@H]1[C@@H]2[C@@H](O)C[C@@]2(C)[C@H]1C[C@H]1O[C@@H](C3CCCCC3)O[C@]12C(=O)CO [des-Cicle, desisobutyryl-ciclesonide] | – | – | – | – | RRA (relative receptor affinity) [8]: 1212 |

The next lines start with results.

| concentration remaining in human lung tissue after desorption [2] [ng/mg] | retention / tissue binding in human lung tissue (in words) [2] | tissue binding (concentration in human lung tissue) after adsorption [5] [ng/mg] | SMILES | non-specific binding to glass incubation vials [1] | also measured |
| --- | --- | --- | --- | --- | --- |
| 1.21 ± 0.23 | pronounced retention | 4.18 ± 0.16 | C[C@@H]1C[C@H]2[C@@H]3C[C@H](F)C4=CC(=O)C=C[C@]4(C)[C@@]3(F)[C@@H](O)C[C@]2(C)[C@@]1(OC(=O)c1ccco1)C(=O)SCF [FF, fluticasone furoate] | no non-specific binding; also recorded: No adsorption | stability in human lung tissue (in words) ([3]; 0.3 μg/mL, 24 hours, presence and absence of dichlorvos, HPLC of supernatant): no indication of instability or chemical modification; also recorded: non-specific esterase-catalyzed hydrolysis of FF did not occur; also recorded: no degradation or metabolism; binding to human nasal tissue compared with FP [4]: greater binding; time to complete adsorption to human lung tissue ([5]; in vitro, data not shown): about 20 min |
| 1.55 ± 0.13 | pronounced retention | 3.39 ± 0.06 | CCC(=O)O[C@]1(C(=O)SCF)[C@H](C)C[C@H]2[C@@H]3C[C@H](F)C4=CC(=O)C=C[C@]4(C)[C@@]3(F)[C@@H](O)C[C@@]21C [FP, fluticasone propionate] | no non-specific binding; also recorded: No adsorption | association rate constant k1 [6]: 21.17 ± 0.56 × 10^5 (L/[mol/min]); dissociation rate constant k-1 [6]: 10.73 ± 0.65 × 10^-4 [1/min] |
| 0.57 ± 0.15 | Lowest tissue binding | 3.65 ± 0.15 | C[C@@H]1C[C@H]2[C@@H]3CCC4=CC(=O)C=C[C@]4(C)[C@@]3(Cl)[C@@H](O)C[C@]2(C)[C@@]1(OC(=O)c1ccco1)C(=O)CCl [MF, mometasone furoate] | did not display non-specific binding to glass | chemical stability in buffer ([1]; degradation product 9,11-epoxy MF): chemical instability |
